Legend:
[1] = test system: osteoclast differentiation; assay: Inhibitory effect on osteoclast differentiation, co-culture of bone marrow cells and osteoblast, TRAP staining; type: cell-based, mouse; conditions: Mus musculus, Osteoclast, 168 h; 1 μm; 7 days co-culture; TRAP-positive osteoclasts with 3 or more nuclei, relative to negative controls; read-out: inhibitory effect on osteoclast differentiation(%)
In short: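 Mouse ddY bone marrow cells (25,000/cm^2) were co-cultured with neonatal ICR calvarial osteoblasts (10,000/cm^2) and compound for 7 days, with 10^−7 M dexamethasone and 10^−8 M vitamin D3, refreshed every 2–3 days. TRAP-positive cells with ≥3 nuclei were counted and expressed as % inhibition versus negative controls.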

[2] = test system: MC3T3; assay: Cytotoxicity test (MTT), MC3T3; type: cell-based; conditions: 10^−6M, 72 hrs, in comparison with the control group
Experimental: (§1) The cytotoxic effect of the benzamidine derivative of the present invention was evaluated by carrying out the experiment described below.
(§2) The test substance was diluted in an appropriate solvent at a 10^−2 M concentration. This substance was diluted in an appropriate culture medium for the cells used in the cytotoxicity test to a concentration of […], and loaded into a 96-well plate in 100 μl per well. The cell lines to be used in the cytotoxicity test were plated on a 96-well plate in a dose of 1.0×10^4 cells/1OO μl per well and cultured for 72 hrs. 25 μl of MTT [3-(4,5-dimethyl-2-thiazolyl)-2,5-diphenyl-2H-tetrazolium bromide] dissolved in PBS (2 mg/mL) were added before 4 hrs of the end of culture. After completion of the reaction, the plates were centrifuged, the medium was discarded and 100 μl of DMSO was added to dissolve formazan. Finally, the absorbance of the developed plates was measured at 540 nm. The survival rates of the cells were expressed as % concentration values in comparison with the control group.

[3] = test system: calvaria; assay: Cytotoxicity test (MTT), calvaria; type: cell-based; conditions: 10^−6M, 72 hrs, in comparison with the control group
Experimental: as §1, §2

[4] = test system: HOS; assay: Cytotoxicity test (MTT), HOS; type: cell-based; conditions: 10^−6M, 72 hrs, in comparison with the control group
Experimental: as §1, §2

| SMILES | inhibition at 1 µM [1] | survival rates of the cells [2] | survival rates of the cells [3] | survival rates of the cells [4] |
| --- | --- | --- | --- | --- |
| CNc1nc(-c2ccc(OCCCCCOc3ccc(C(=N)NO)cc3)cc2)c(CCNCCN2CCOCC2)s1 [Example 50, N-hydroxy-4-[5-(4-{2-methylamino-5-[2-(2-morpholin-4-yl-ethylamino)-ethyl]-thiazol-4-yl}-phenoxy)-pentyloxy]-benzamidine] | 37% | 97.2% | 92.8% | 93.6% |
| CNc1nc(-c2ccc(OCCCCCOc3ccc(C(=N)NO)cc3)cc2)c(CCNCCCn2ccnc2)s1 [Example 51, N-hydroxy-4-[5-(4-{5-[2-(3-imidazol-1-yl-propylamino)-ethyl]-2-methylamino-thiazol-4-yl}-phenoxy)-pentyloxy]-benzamidine] | 32% | 93.8% | 91.7% | 99.6% |
| N=C(NO)c1ccc(OCCCCCOc2ccc(-c3nc(N(CCN4CCOCC4)Cc4ccccc4)sc3CCN3CCOCC3)cc2)cc1 [Example 56, N-hydroxy-4-(5-{4-[2-[benzyl-(2-morpholin-4-yl-ethyl)-amino]-5-(2-morpholin-4-yl-ethyl)-thiazol-4-yl]-phenoxy}-pentyloxy)-benzamidine] | 100% | 86.0% | 84.0% | 98.8% |
| CCN(CC)c1nc(-c2ccc(OCCCCCOc3ccc(C(=N)NO)cc3)cc2)c(CCN2CCOCC2)s1 [Example 57, N-hydroxy-4-(5-{4-[2-diethylamino-5-(2-morpholin-4-yl-ethyl)-thiazol-4-yl]-phenoxy}-pentyloxy)-benzamidine] | 100% | 86.8% | 87.0% | 90.7% |
| COCCN(CCOC)c1nc(-c2ccc(OCCCCCOc3ccc(C(=N)NO)cc3)cc2)c(CCN2CCOCC2)s1 [Example 58, N-hydroxy-4-(5-{4-[2-[bis-(2-methoxy-ethyl)-amino]-5-(2-morpholin-4-yl-ethyl)-thiazol-4-yl]-phenoxy}-pentyloxy)-benzamidine] | 100% | 79.2% | 76.8% | 85.4% |
| N=C(NO)c1ccc(OCCCCCOc2ccc(-c3nc(N4CCOCC4)sc3CCNCCN3CCOCC3)cc2)cc1 [Example 62, N-hydroxy-4-[5-(4-{2-morpholin-4-yl-5-[2-(2-morpholin-4-yl-ethylamino)-ethyl]-thiazol-4-yl}-phenoxy)-pentyloxy]-benzamidine] | 43.6% | 97.0% | 92.7% | 95.1% |
| N=C(NO)c1ccc(OCCCCCOc2ccc(-c3nc(CN4CCCCC4)sc3CCN3CCOCC3)cc2)cc1 [Example 63, N-hydroxy-4-(5-{4-[5-(2-morpholin-4-yl-ethyl)-2-piperidin-1-yl-methyl-thiazol-4-yl]-phenoxy}-pentyloxy)-benzamidine] | 99.2% | 89.4% | 86.9% | 86.5% |
